Experimental data taken from patent US20250123282A1, “METHODS FOR EVALUATION AND TREATMENT OF TYROSINE KINASE INHIBITOR (TKI)-RESISTANT ACUTE MYELOID LEUKEMIA” (LOMA LINDA UNIVERSITY, priority 2021, published 2025).

Assays:
Format in all cases: cell-based, human
MV4-11 cells [1] = assay: qPCR analyses of gene expression changes in TKI-treated MV4-11
Description: MV4-11 cells (3 days after TKI treatment) were harvested and analyzed by reverse transcription quantitative polymerase chain reaction (qPCR). The qPCR data of four genetic aspects including cell death, kinases specialized in phosphorylation of BAD, JAK/STAT signaling pathway, and intrinsic inhibitory pathways were compared. […] Next, to investigate which kinases are responsible for the phosphorylation of BAD (pBAD) after TKI treatment, screenings of those kinase candidates reported to phosphorylate BAD under physiological conditions were conducted. […] Elevated gene expressions of both PIM2 and PIM3 have been found in adult AML patients associated with poor survival.
(§1) Small Molecular Inhibitors and in vitro & ex vivo Treatment. […] The dose of 80 nM for the four TKIs was selected based on their dose-dependent cytotoxicity in previous reports. […] Both GILT and QUIZ were reported to start to suppress the tumorigenic clustering and c-Kit at the dose of 80 nM. […] The combination of 5 μM 5-Azacitidine (AZA) and 80 nM 1α,25-Dihydroxyvitamin D3 (VD3) was added to the experimental group similar to the previous report. As combination agents to treat blasts in vitro, one dose of 80 nM GILT with one dose of either 100 nM Venetoclax (BCL2 inhibitor), 10 μM (R)-Lisofylline (STAT4 inhibitor), 100 nM AZD1208 (PIM inhibitor), 500 nM PF-06826647 (TYK2 inhibitor), or 500 nM AT9283 (JAK2/3 inhibitor) were added to 1 ml of 1×10^6 cells for each experimental group in 24 well plates. Three days after the one dose treatment, cells were then collected for either analyses by FACS and qPCR, or re-plated into 24 well plates for continued culture. At different time points, re-plated cells were collected for analyses by FACS and qPCR. Medium change was performed every 2-3 days.
RNA Isolation and Real-Time Polymerase Chain Reaction (qPCR) analysis. MV4-11 and MOLM-14 cells were cultured with the presence of TKI drugs for 72 hours or re-plated 28 days after the treatment of TKI drugs. Cells were isolated for RNA isolation and qPCR analysis as previously described. Total RNA was isolated using the RNeasy Micro Kit (Qiagen) according to the manufacturer's instruction. First-strand cDNA was synthesized using the SuperScript III Reverse Transcriptase (Invitrogen; Life Technologies). With an Applied Biosystems 7900HT Real-Time PCR machine, qPCR was performed and analyzed using known primers for the specific markers. The PCR conditions were 10 minutes at 95° C. followed by 40 cycles of 10 seconds at 95° C. and 15 seconds at 60° C. The relative expression level of a gene was determined using the ΔΔCt method and normalized to GAPDH.

MV4-11 cells [2] = assay: FACS time course of CD44+pBAD+ and Ki67+CD33+CD44+ populations in TKI-treated MV4-11
Description: To follow the cell fate of TKI-treated MV4-11 and MOLM-14, culturing of blasts were continued by performing medium change every 2-3 days. […] The BAD protein is a pro-apoptotic member of the BCL-2 gene family, which is involved in initiating apoptosis. Dephosphorylated BAD is pro-apoptotic by binding BCL-2 and inactivating BCL-2, while phosphorylated BAD (pBAD) is anti-apoptotic by leaving BCL-2 free to inhibit BAX-triggered apoptosis.
as §1
Flow Cytometry (FACS). Cells were harvested and examined for the expression of cell surface biomarkers (CD) and intracellular proteins by multichromatic FACS as previously described. About 1×10^4˜10^6 cells in 100 μl FACS buffer (PBS containing 1% FBS and 0.05% sodium azide) were stained with various fluorescence-conjugated antibodies specific for the desired cell surface proteins at 4° C. for 30 min. The surface-stained cells were then fixed and permeabilized using the appropriate reagents (e.g. the BD Pharmingen Cytofix/Cytoperm buffer) and stained with different fluorescence-conjugated antibodies specific for the desired intracellular proteins at 4° C. for 2 hours in the permeabilizing buffer (e.g. the BD Perm/Wash buffer). Concentrations of the Abs were used per the manufacturers' recommendations. Finally, the cells were washed twice in the permeabilizing buffer and twice in the FACS buffer before being analyzed on the BD FACSAria II. Data was analyzed using the FlowJo software (Tree Star Inc., Ashland, OR).

MV4-11 cells [3] = assay: Coculture of GILT and exogenous MIF on MV4-11 (sequential or simultaneous); details: MV4-11, sequential coculture 5 days, 80 nM GILT only
Experimental: To investigate whether MIF/CXCLs-CXCR2 pathways could be activated by TKI-treatment in viable blasts to support their survival and continuous proliferation, a serial coculture was conducted to examine whether the supplementation of exogenous MIF at early (simultaneous) or late stage (sequential) of TKI treatment could rescue the GIL-treated MV4-11 in vitro. CD44, a multifunctional cell surface adhesion receptor, was identified as a key regulator of quiescent AML leukemic stem cells (LSCs) which are highly microenvironment dependent. […] In the simultaneous coculture, another group of CD44High^+ cells was also found which included both Ki67^+ and Ki67^− subsets (FIG. 8F). This group of CD44High^+ cells could be visualized in the flow cytometry histogram (FIG. 8G). […] CD44high^+ stem-like cells have been previously found to be highly tumorigenic, treatment-resistant and responsible for metastatic progression in breast cancer.

[4] = MV4-11, 3 days after TKI treatment, vs control
[5] = MV4-11, 3 days after TKI treatment, vs control non-treatment cells
[6] = MV4-11, 10 days after TKI treatment
[7] = MV4-11, 20 days after TKI treatment
[8] = MV4-11, 10 days after TKI treatment, vs non-treatment control
[9] = MV4-11, 28 days after the treatment
[10] = MV4-11, 28 days after the treatment, vs control non-treatment cells
[11] = MV4-11, 28 days after TKI treatment

Row | Structure (SMILES) | BAD mRNA increase (MV4-11 cells [1]; [5]) | BAX mRNA increase (MV4-11 cells [1]; [5]) | BCL-2 mRNA increase (MV4-11 cells [1]; [5]) | JAK2 mRNA increase (MV4-11 cells [1]; [5]) | PIAS2 mRNA increase (MV4-11 cells [1]; [5]) | PIM2 mRNA increase (MV4-11 cells [1]; [5]) | PIM3 mRNA increase (MV4-11 cells [1]; [5]) | SHP1 mRNA increase (MV4-11 cells [1]; [5]) | SHP2 mRNA increase (MV4-11 cells [1]; [5]) | SOCS1 mRNA increase (MV4-11 cells [1]; [5]) | SOCS3 mRNA increase (MV4-11 cells [1]; [5]) | STAT2 mRNA increase (MV4-11 cells [1]; [5]) | STAT4 mRNA increase (MV4-11 cells [1]; [5]) | TYK2 mRNA increase (MV4-11 cells [1]; [5]) | population of viable CD44+pBAD+ cells (MV4-11 cells [2]; [6]) | population of viable Ki67+CD33+CD44+ cells (MV4-11 cells [2]; [6]) | population of viable CD44+pBAD+ cells (MV4-11 cells [2]; [7]) | population of viable Ki67+CD33+CD44+ cells (MV4-11 cells [2]; [7]) | further results
1 | CCc1nc(C(N)=O)c(Nc2ccc(N3CCC(N4CCN(C)CC4)CC3)c(OC)c2)nc1NC1CCOCC1 [GILT, Gilteritinib] | 23 fold | 68 fold | 49 fold | 6 fold | about 2 fold | 203 fold | 134 fold | about 4 fold | 9 fold | 153 fold | 182 fold | 9 fold | 23 fold | 71 fold | 28.7% | 17.4% | 1.1% | 1.27% | NFκB2 mRNA increase (MV4-11 cells [1]; MV4-11, 80 nM TKI, vs non-treated control): 110 fold; CXCR2 mRNA increase (MV4-11 cells [1]; MV4-11, 3 days after TKI treatment): 109 fold; AKT1 mRNA increase (MV4-11 cells [1]; [4]): 10 fold; PRKACA mRNA increase (MV4-11 cells [1]; [4]): 15 fold; STAT3 mRNA increase (MV4-11 cells [1]; [5]): 2 fold; STAT5A mRNA increase (MV4-11 cells [1]; [5]): 4 fold; CXCR1 mRNA increase (MV4-11 cells [1]; MV4-11, 3 days after TKI treatment, data not shown): about 90 fold; percentage of viable quiescent CD44+ cell population (MV4-11 cells [3]): 17.7%
2 | CC(C)(C)c1cc(NC(=O)Nc2ccc(-c3cn4c(n3)sc3cc(OCCN5CCOCC5)ccc34)cc2)no1 [QUIZ, Quizartinib] | 16 fold | 44 fold | 31 fold | 6 fold | about 2 fold | 120 fold | 81 fold | about 3 fold | 5 fold | 88 fold | 120 fold | 6 fold | 19 fold | 46 fold | 93.1% | 68.2% | 20.7% | 52.8% | PIM1 mRNA decrease (MV4-11 cells [1]; [5]): 0.5 fold; PIAS2 mRNA increase (MV4-11 cells [1]; [8]): 570 fold; PIM2 mRNA increase (MV4-11 cells [1]; [8]): 355 fold; PIM3 mRNA increase (MV4-11 cells [1]; [8]): 494 fold; SHP2 mRNA increase (MV4-11 cells [1]; [8]): 9 fold; SOCS1 mRNA increase (MV4-11 cells [1]; [8]): 615 fold; SOCS3 mRNA increase (MV4-11 cells [1]; [8]): 590 fold; STAT2 mRNA increase (MV4-11 cells [1]; [8]): 14 fold; STAT4 mRNA increase (MV4-11 cells [1]; [8]): 28 fold; TYK2 mRNA increase (MV4-11 cells [1]; [8]): 73 fold; PIM2 mRNA increase (MV4-11 cells [1]; [9]): about 2 fold; PIM3 mRNA increase (MV4-11 cells [1]; [9]): about 2 fold; CISH mRNA increase (MV4-11 cells [1]; [10]): about 2 fold; SOCS1 mRNA increase (MV4-11 cells [1]; [10]): ~4 fold; SOCS3 mRNA increase (MV4-11 cells [1]; [10]): about 2 fold; population of viable CD44+pBAD+ cells (MV4-11 cells [2]; [11]): 0.24%; population of viable Ki67+CD33+CD44+ cells (MV4-11 cells [2]; [11]): 1.58%
